Measured values from PubChem BioAssay (NCI).
“And” between values parts separate entries of the source, which are not always exact repeats. Equal values may be shown once.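 All cell lines were grown in 96-well plates and treated with compound for 48 hours. At the TGI there is no net growth.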

What was measured:
Assay in all cases: inhibition of tumour cell growth, NCI panel, 48 h
NCI-H522 lung = system: NCI-H522 lung
OVCAR-8 ovarian = system: OVCAR-8 ovarian
SK-OV-3 ovarian = system: SK-OV-3 ovarian
OVCAR-3 ovarian = system: OVCAR-3 ovarian
HL-60(TB) leukemia = system: HL-60(TB) leukemia
HOP-62 NSCLC = system: HOP-62 NSCLC
COLO 205 colon = system: COLO 205 colon
SNB-75 CNS = system: SNB-75 CNS
ACHN renal = system: ACHN renal
RXF 393 renal = system: RXF 393 renal
MDA-N = system: MDA-N
CAKI-1 renal = system: CAKI-1 renal
UACC-257 melanoma = system: UACC-257 melanoma
EKVX NSCLC = system: EKVX NSCLC
U251 CNS = system: U251 CNS
OVCAR-5 ovarian = system: OVCAR-5 ovarian
HCT-15 colon = system: HCT-15 colon
TK-10 renal = system: TK-10 renal
SN12C renal = system: SN12C renal
PC-3 prostate = system: PC-3 prostate
SF-268 CNS = system: SF-268 CNS
RPMI-8226 leukemia = system: RPMI-8226 leukemia
MALME-3M melanoma = system: MALME-3M melanoma
SF-539 CNS = system: SF-539 CNS
CCRF-CEM leukemia = system: CCRF-CEM leukemia
SR leukemia = system: SR leukemia
K-562 leukemia = system: K-562 leukemia
MDA-MB-231 breast = system: MDA-MB-231 breast
HT29 colon = system: HT29 colon
OVCAR-4 ovarian = system: OVCAR-4 ovarian
NCI-H226 lung = system: NCI-H226 lung
LOX IMVI melanoma = system: LOX IMVI melanoma
MCF7 breast = system: MCF7 breast
HOP-92 NSCLC = system: HOP-92 NSCLC
MOLT-4 leukemia = system: MOLT-4 leukemia
UACC-62 melanoma = system: UACC-62 melanoma
786-0 renal = system: 786-0 renal
A549 NSCLC = system: A549 NSCLC
DU-145 prostate = system: DU-145 prostate
HS 578T breast = system: HS 578T breast
IGROV1 ovarian = system: IGROV1 ovarian
A498 renal = system: A498 renal
NCI-H23 lung = system: NCI-H23 lung
MDA-MB-435 = system: MDA-MB-435
KM12 colon = system: KM12 colon
SK-MEL-5 melanoma = system: SK-MEL-5 melanoma
SW-620 colon = system: SW-620 colon
HCT-116 colon = system: HCT-116 colon
NCI-H460 lung = system: NCI-H460 lung
M14 melanoma = system: M14 melanoma
NCI/ADR-RES ovarian = system: NCI/ADR-RES ovarian
T-47D breast = system: T-47D breast
SF-295 CNS = system: SF-295 CNS
HCC-2998 colon = system: HCC-2998 colon
SK-MEL-2 melanoma = system: SK-MEL-2 melanoma
SK-MEL-28 melanoma = system: SK-MEL-28 melanoma
UO-31 renal = system: UO-31 renal
BT-549 breast = system: BT-549 breast
SNB-19 CNS = system: SNB-19 CNS
DMS 273 small cell lung = system: DMS 273 small cell lung
DLD-1 colon = system: DLD-1 colon
KM20L2 colon = system: KM20L2 colon
LXFL 529 NSCLC = system: LXFL 529 NSCLC
HOP-18 NSCLC = system: HOP-18 NSCLC
SNB-78 CNS = system: SNB-78 CNS
XF 498 CNS = system: XF 498 CNS
M19-MEL melanoma = system: M19-MEL melanoma
DMS 114 small cell lung = system: DMS 114 small cell lung

## Oc1ccc2ccccc2c1N=Nc1cccc2ccccc12
NCI-H522 lung
  TGI: > 100 µM
OVCAR-8 ovarian
  TGI: > 100 µM
SK-OV-3 ovarian
  TGI: > 100 µM
OVCAR-3 ovarian
  TGI: > 100 µM
HL-60(TB) leukemia
  TGI: > 100 µM
HOP-62 NSCLC
  TGI: > 100 µM
COLO 205 colon
  TGI: > 100 µM
SNB-75 CNS
  TGI: > 100 µM and 80.4 µM
ACHN renal
  TGI: > 100 µM
RXF 393 renal
  TGI: > 100 µM
MDA-N
  TGI: > 100 µM
CAKI-1 renal
  TGI: > 100 µM
UACC-257 melanoma
  TGI: > 100 µM
EKVX NSCLC
  TGI: > 100 µM
U251 CNS
  TGI: > 100 µM
OVCAR-5 ovarian
  TGI: > 100 µM
HCT-15 colon
  TGI: > 100 µM
TK-10 renal
  TGI: > 100 µM
SN12C renal
  TGI: > 100 µM
PC-3 prostate
  TGI: > 100 µM
SF-268 CNS
  TGI: > 100 µM
RPMI-8226 leukemia
  TGI: > 100 µM
MALME-3M melanoma
  TGI: > 100 µM
SF-539 CNS
  TGI: 76.3 µM
CCRF-CEM leukemia
  TGI: > 100 µM
SR leukemia
  TGI: > 100 µM
K-562 leukemia
  TGI: > 100 µM
MDA-MB-231 breast
  TGI: > 100 µM
HT29 colon
  TGI: > 100 µM
OVCAR-4 ovarian
  TGI: > 100 µM
NCI-H226 lung
  TGI: > 100 µM
LOX IMVI melanoma
  TGI: > 100 µM
MCF7 breast
  TGI: > 100 µM
HOP-92 NSCLC
  TGI: > 100 µM
MOLT-4 leukemia
  TGI: > 100 µM
UACC-62 melanoma
  TGI: > 100 µM
786-0 renal
  TGI: > 100 µM
A549 NSCLC
  TGI: > 100 µM
DU-145 prostate
  TGI: > 100 µM
HS 578T breast
  TGI: > 100 µM and 77.7 µM
IGROV1 ovarian
  TGI: > 100 µM
A498 renal
  TGI: > 100 µM
NCI-H23 lung
  TGI: > 100 µM
MDA-MB-435
  TGI: > 100 µM
KM12 colon
  TGI: > 100 µM
SK-MEL-5 melanoma
  TGI: > 100 µM
SW-620 colon
  TGI: > 100 µM
HCT-116 colon
  TGI: > 100 µM
NCI-H460 lung
  TGI: > 100 µM
M14 melanoma
  TGI: > 100 µM
NCI/ADR-RES ovarian
  TGI: > 100 µM
T-47D breast
  TGI: > 100 µM
SF-295 CNS
  TGI: > 100 µM
HCC-2998 colon
  TGI: > 100 µM
SK-MEL-2 melanoma
  TGI: > 100 µM
SK-MEL-28 melanoma
  TGI: > 100 µM
UO-31 renal
  TGI: > 100 µM
BT-549 breast
  TGI: > 100 µM
SNB-19 CNS
  TGI: > 100 µM

## O=c1oc(-c2ccccc2)cn1-c1ccccc1
NCI-H522 lung
  TGI: > 100 µM
HL-60(TB) leukemia
  TGI: > 100 µM
HOP-62 NSCLC
  TGI: > 100 µM
SNB-75 CNS
  TGI: > 100 µM
RXF 393 renal
  TGI: > 100 µM
U251 CNS
  TGI: > 100 µM
DMS 273 small cell lung
  TGI: > 100 µM
SN12C renal
  TGI: > 100 µM
DLD-1 colon
  TGI: > 100 µM
RPMI-8226 leukemia
  TGI: > 100 µM
SF-539 CNS
  TGI: > 100 µM
KM20L2 colon
  TGI: > 100 µM
CCRF-CEM leukemia
  TGI: > 100 µM
K-562 leukemia
  TGI: > 100 µM
LXFL 529 NSCLC
  TGI: > 100 µM
NCI-H226 lung
  TGI: > 100 µM
LOX IMVI melanoma
  TGI: > 100 µM
MOLT-4 leukemia
  TGI: > 100 µM
HOP-18 NSCLC
  TGI: > 100 µM
786-0 renal
  TGI: > 100 µM
SNB-78 CNS
  TGI: > 100 µM
NCI-H23 lung
  TGI: > 100 µM
HCT-116 colon
  TGI: > 100 µM
NCI-H460 lung
  TGI: > 100 µM
M14 melanoma
  TGI: > 100 µM
HCC-2998 colon
  TGI: > 100 µM
XF 498 CNS
  TGI: > 100 µM
SK-MEL-28 melanoma
  TGI: > 100 µM
SNB-19 CNS
  TGI: > 100 µM

## Cc1cc(C)nc(NS(=O)(=O)c2ccc(Nc3c4ccccc4nc4ccc(C(=O)Nc5ccc(S(N)(=O)=O)cc5)cc34)cc2)n1
NCI-H522 lung
  TGI: > 100 µM
OVCAR-8 ovarian
  TGI: > 100 µM
SK-OV-3 ovarian
  TGI: > 100 µM
OVCAR-3 ovarian
  TGI: > 100 µM
HL-60(TB) leukemia
  TGI: > 100 µM
HOP-62 NSCLC
  TGI: > 100 µM
COLO 205 colon
  TGI: > 100 µM
SNB-75 CNS
  TGI: > 100 µM
ACHN renal
  TGI: > 100 µM
RXF 393 renal
  TGI: > 100 µM
MDA-N
  TGI: > 100 µM
CAKI-1 renal
  TGI: > 100 µM
UACC-257 melanoma
  TGI: > 100 µM
EKVX NSCLC
  TGI: > 100 µM
U251 CNS
  TGI: > 100 µM
OVCAR-5 ovarian
  TGI: > 100 µM
HCT-15 colon
  TGI: > 100 µM
TK-10 renal
  TGI: > 100 µM
SN12C renal
  TGI: > 100 µM
PC-3 prostate
  TGI: > 100 µM
SF-268 CNS
  TGI: > 100 µM
RPMI-8226 leukemia
  TGI: > 100 µM
MALME-3M melanoma
  TGI: > 100 µM
SF-539 CNS
  TGI: > 100 µM
CCRF-CEM leukemia
  TGI: > 100 µM
SR leukemia
  TGI: > 100 µM
K-562 leukemia
  TGI: > 100 µM
MDA-MB-231 breast
  TGI: 52.6 µM
HT29 colon
  TGI: > 100 µM
OVCAR-4 ovarian
  TGI: > 100 µM
NCI-H226 lung
  TGI: > 100 µM
LOX IMVI melanoma
  TGI: > 100 µM
MCF7 breast
  TGI: > 100 µM
HOP-92 NSCLC
  TGI: > 100 µM
MOLT-4 leukemia
  TGI: > 100 µM
UACC-62 melanoma
  TGI: > 100 µM
786-0 renal
  TGI: > 100 µM
A549 NSCLC
  TGI: > 100 µM
DU-145 prostate
  TGI: > 100 µM
HS 578T breast
  TGI: > 100 µM
IGROV1 ovarian
  TGI: > 100 µM
A498 renal
  TGI: > 100 µM
NCI-H23 lung
  TGI: > 100 µM
MDA-MB-435
  TGI: > 100 µM
KM12 colon
  TGI: > 100 µM
SK-MEL-5 melanoma
  TGI: > 100 µM
SW-620 colon
  TGI: > 100 µM
HCT-116 colon
  TGI: > 100 µM
NCI-H460 lung
  TGI: > 100 µM
M14 melanoma
  TGI: > 100 µM
NCI/ADR-RES ovarian
  TGI: > 100 µM
T-47D breast
  TGI: > 100 µM
SF-295 CNS
  TGI: > 100 µM
HCC-2998 colon
  TGI: > 100 µM
SK-MEL-2 melanoma
  TGI: > 100 µM
SK-MEL-28 melanoma
  TGI: > 100 µM
UO-31 renal
  TGI: > 100 µM
BT-549 breast
  TGI: 73.5 µM
SNB-19 CNS
  TGI: > 100 µM

## CC(=O)C1C(c2ccccc2)C2(C)OC(=O)C(C#N)C12C (stereo unspecified)
OVCAR-8 ovarian
  TGI: > 100 µM
SK-OV-3 ovarian
  TGI: > 100 µM
OVCAR-3 ovarian
  TGI: > 100 µM
HL-60(TB) leukemia
  TGI: > 100 µM
COLO 205 colon
  TGI: > 100 µM
SNB-75 CNS
  TGI: > 100 µM
ACHN renal
  TGI: > 100 µM
RXF 393 renal
  TGI: > 100 µM
EKVX NSCLC
  TGI: > 100 µM
U251 CNS
  TGI: > 100 µM
OVCAR-5 ovarian
  TGI: > 100 µM
HCT-15 colon
  TGI: > 100 µM
TK-10 renal
  TGI: > 100 µM
DMS 273 small cell lung
  TGI: > 100 µM
SN12C renal
  TGI: > 100 µM
DLD-1 colon
  TGI: > 100 µM
SF-268 CNS
  TGI: > 100 µM
RPMI-8226 leukemia
  TGI: > 100 µM
MALME-3M melanoma
  TGI: > 100 µM
SF-539 CNS
  TGI: > 100 µM
KM20L2 colon
  TGI: > 100 µM
CCRF-CEM leukemia
  TGI: > 100 µM
K-562 leukemia
  TGI: > 100 µM
LXFL 529 NSCLC
  TGI: > 100 µM
M19-MEL melanoma
  TGI: > 100 µM
OVCAR-4 ovarian
  TGI: > 100 µM
NCI-H226 lung
  TGI: > 100 µM
LOX IMVI melanoma
  TGI: > 100 µM
MOLT-4 leukemia
  TGI: > 100 µM
UACC-62 melanoma
  TGI: > 100 µM
HOP-18 NSCLC
  TGI: > 100 µM
786-0 renal
  TGI: > 100 µM
A549 NSCLC
  TGI: > 100 µM
SNB-78 CNS
  TGI: > 100 µM
IGROV1 ovarian
  TGI: > 100 µM
NCI-H23 lung
  TGI: > 100 µM
KM12 colon
  TGI: > 100 µM
SK-MEL-5 melanoma
  TGI: > 100 µM
SW-620 colon
  TGI: > 100 µM
HCT-116 colon
  TGI: > 100 µM
DMS 114 small cell lung
  TGI: > 100 µM
NCI-H460 lung
  TGI: > 100 µM
M14 melanoma
  TGI: > 100 µM
SF-295 CNS
  TGI: > 100 µM
SK-MEL-2 melanoma
  TGI: > 100 µM
XF 498 CNS
  TGI: > 100 µM
SK-MEL-28 melanoma
  TGI: > 100 µM
UO-31 renal
  TGI: > 100 µM
SNB-19 CNS
  TGI: > 100 µM
